# Measured values: patent publication US9657351B2, “MRNA-based gene expression for personalizing patient cancer therapy with an MDM2 antagonist” (Hoffmann-La Roche Inc., priority 2013, dated 2017)
# Legend:
# Test in all cases: COMPOUND A In Vitro Assay
# Assay type in all cases: cell-based
# MEG-01 = details: Homo sapiens, Leukemia, chronic myeloid, TP53 Mutant
# Summary of the method: (§1)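 Each human tumour-derived line is exposed to COMPOUND A, an MDM2 antagonist, in a high-throughput format, and an IC50 is generated. Baseline mRNA was profiled by RNA sequencing before treatment.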
# BxPC-3 = details: Homo sapiens, Pancreas, TP53 Mutant
# Summary of the method: as §1
# NUGC-4 = details: Homo sapiens
# Summary of the method: as §1
# TF-1a = details: Homo sapiens, Bone marrow, TP53 Mutant
# Summary of the method: as §1
# HCC1569 = details: Homo sapiens, Breast, mammary gland, TP53 Mutant
# Summary of the method: as §1
# ZR-75-1 = details: Homo sapiens
# Summary of the method: as §1
# NCI-H1155 = details: Homo sapiens, Lung, TP53 Mutant
# Summary of the method: as §1
# VCaP = details: Homo sapiens, Prostate, TP53 Mutant
# Summary of the method: as §1
# SW780 = details: Homo sapiens
# Summary of the method: as §1
# LS1034 = details: Homo sapiens, LS-1034, Intestine, large, caecum, TP53 Mutant
# Summary of the method: as §1
# NCI-H1781 = details: Homo sapiens, Lung, TP53 Mutant
# Summary of the method: as §1
# LoVo = details: Homo sapiens, Intestine, large, colon, TP53 Wild type
# Summary of the method: as §1
# F-36P = details: Homo sapiens, Myeloblast, TP53 Mutant
# Summary of the method: as §1
# T24 = details: Homo sapiens, T-24, Urinary, bladder, TP53 Mutant
# Summary of the method: as §1
# 10C9 = details: Homo sapiens
# Summary of the method: as §1
# HT-1197 = details: Homo sapiens
# Summary of the method: as §1
# ES2 = details: Homo sapiens, ES-2, Ovary, TP53 NA
# Summary of the method: as §1
# SK-N-AS = details: Homo sapiens, Brain, TP53 Mutant
# Summary of the method: as §1
# NCI-H596 = details: Homo sapiens, Lung, TP53 Mutant
# Summary of the method: as §1
# HPAC = details: Homo sapiens, Pancreas, TP53 Mutant
# Summary of the method: as §1
# NCI-H250 = details: Homo sapiens, Lung, TP53 NA
# Summary of the method: as §1
# KMS-11 = details: Homo sapiens, Lymphocyte, TP53 Wild type
# Summary of the method: as §1
# NCI-H526 = details: Homo sapiens, Lung, TP53 Mutant
# Summary of the method: as §1
# NCI-H460 = details: Homo sapiens
# Summary of the method: as §1
# Calu-1 = details: Homo sapiens, Lung, TP53 Wild type
# Summary of the method: as §1
# C32 = details: Homo sapiens, Skin, TP53 Wild type
# Summary of the method: as §1
# NCI-H522 = details: Homo sapiens, Lung, TP53 Mutant
# Summary of the method: as §1
# JIMT-1 = details: Homo sapiens, Breast, TP53 Mutant
# Summary of the method: as §1
# HepG2 = details: Homo sapiens
# Summary of the method: as §1
# L-363 = details: Homo sapiens, Lymphocyte, peripheral blood, TP53 Mutant
# Summary of the method: as §1
# 647-V = details: Homo sapiens, Urinary tract, urothelium, TP53 Mutant
# Summary of the method: as §1
# LNCaP clone FGC = details: Homo sapiens
# Summary of the method: as §1
# KYSE-520 = details: Homo sapiens, Esophagus, TP53 Mutant
# Summary of the method: as §1
# HCC1187 = details: Homo sapiens, Breast, mammary gland, TP53 Mutant
# Summary of the method: as §1
smiles,measurement,setting,value
CCOc1cc(C(C)(C)C)ccc1C1=N[C@@](C)(c2ccc(Cl)cc2)[C@@](C)(c2ccc(Cl)cc2)N1C(=O)N1CCN(CCCS(C)(=O)=O)CC1 [COMPOUND A],IC50,MEG-01,17 µM
same,IC50,BxPC-3,18 µM
same,IC50,"NUGC-4; NUGC-4, NUGC-4, Stomach, TP53 Wild type",0.38 µM
same,IC50,"NUGC-4; NUGC-4, NUGC-4 cells",0.4 µM
same,IC50,TF-1a,10 µM
same,IC50,HCC1569,15 µM
same,IC50,"ZR-75-1; ZR-75-1, ZR-75-1, Breast, mammary gland, TP53 Wild type",0.076 µM
same,IC50,"ZR-75-1; ZR-75-1, ZR-75-1 cells",0.1 µM
same,IC50,NCI-H1155,22 µM
same,IC50,VCaP,13 µM
same,IC50,"SW780; SW780, SW780, Urinary, bladder, TP53 Wild type",0.97 µM
same,IC50,"SW780; SW780, SW780 cells",1 µM
same,IC50,LS1034,5.7 µM
same,IC50,NCI-H1781,8.8 µM
same,IC50,LoVo,1.3 µM
same,IC50,F-36P,23 µM
same,IC50,T24,21 µM
same,IC50,"10C9; 10C9, Lymphocyte B, TP53 Mutant",19 µM
same,IC50,10C9; 10C9 cells,19 µM
same,IC50,"HT-1197; HT1197, HT-1197, Urinary, bladder, TP53 Wild type",0.19 µM
same,IC50,"HT-1197; HT1197, HT-1197 cells",0.2 µM
same,IC50,ES2,3.3 µM
same,IC50,SK-N-AS,13 µM
same,IC50,NCI-H596,18 µM
same,IC50,HPAC,4.6 µM
same,IC50,NCI-H250,12 µM
same,IC50,KMS-11,12 µM
same,IC50,NCI-H526,16 µM
same,IC50,"NCI-H460; NCI-H460, NCI-H460, Lung, TP53 Wild type",0.88 µM
same,IC50,"NCI-H460; NCI-H460, NCI-H460 cells",0.9 µM
same,IC50,Calu-1,14 µM
same,IC50,C32,3 µM
same,IC50,NCI-H522,22 µM
same,IC50,JIMT-1,11 µM
same,IC50,"HepG2; HepG2, HepG2, Liver, TP53 Wild type",0.18 µM
same,IC50,"HepG2; HepG2, HepG2 cells",0.2 µM
same,IC50,L-363,32 µM
same,IC50,647-V,17 µM
same,IC50,LNCaP clone FGC; LNCaP clone FGC cells,0.2 µM
same,IC50,"LNCaP clone FGC; LNCaP clone FGC, tissue NA, TP53 Wild type",0.17 µM
same,IC50,KYSE-520,10 µM
same,IC50,HCC1187,12 µM
